The text below walks through data of US8507411B2, “Neoglycorandomization and digitoxin analogs” (priority 2004, dated 2013).

Read-outs that look alike come from different tables or passages of the source.

One assay deals with NCI/ADR-RES. In words: Cell titer-glo cytotoxicity assay, NCI/ADR-RES. It is filed as cell-based, human. The text has this:
(§1) FIG. 7 is a graphical summary of the results of the IC50 data from cytotoxicity assays. […] In the assay, live cells are quantified by measuring the luminescent signal resulting from the reaction between cellular ATP and luciferin to form oxyluciferin. The IC50 value for each compound represents at least four replicates of dose-response experiments conducted over six concentrations at two-fold dilutions.
(§2) The anticancer activities of ten panel analogues (3a-c,e,f and 4a-c,e,f) and digitoxin (1) were assessed using a high-throughput cytotoxicity assay on four human cancer cell lines, (FIG. 7) representing lung, colorectal, and ovarian carcinomas, as well as NCI/ADR-RES, a drug-resistant ovarian carcinoma line (For years, NCI/ADR-RES cells have been misidentified as drug-resistant MCF-7 breast adenocarcinoma cells, but recently this line has been shown definitively to be a drug-resistant line derived from OVCAR-8 ovarian adenocarcinoma cells. Liscovitch, M. et al., Cancer Lett. (2007) 245, 350-352.
(§3) All cell lines were maintained as previously reported (Langenhan, J. M. et al., Proc. Natl. Acad. Sci. (2005) 102, 12305-12310.) Cells were harvested by trypsinization using 0.25% trypsin and 0.1% EDTA and then counted in a Cellometer Auto T4 cell counter (Nexcelom, inc), before dilution for assay plating. Cell plating, compound handling and assay set up were performed as previously reported^1 except for the cells were plated in 50 μL volumes in 384 well clear bottom, tissue culture plates (Corning-Costar, Inc). Compounds were added from the 384-well compound stock plates at a 1:100 dilution using a Biomek FX liquid handler equipped with a 384 channel head (Beckman Coulter, Inc.). Cell titer-glo reagent (15 μL) (Promega Corporation, Inc.) was added and incubated for 10 min at room temperature with gentle agitation to lyse the cells. Each plate was read for luminescence. […] IC50 values were determined using XLFit 4.0 as previously reported (see Table 7).

A further assay has as its target T1, Na+/K+-ATPase (Homo sapiens, UniProt P05023).
T1 construct: endogenous in cells; host or cells: HEK-293
In words: Non-radioactive rubidium ion uptake assay, HEK-293 cells. It is filed as cell-based. The note with it: read-out: Na+/K+-ATPase Inhibition IC50. How it is done: Na/K-ATPase Assays. Inhibition of Na^+/K^+-ATPase on HEK-293 cells and CHO-K1 cells by the library hits was determined by Aurora Biomed, Inc. using a high-throughput non-radioactive rubidium ion uptake assay. Experiments were conducted in duplicate using three different concentrations. Within each experiment, percent inhibition values at the three concentrations were expressed as the percent reduction of the maximum absorption signal observed for a 0 nM control. IC50 values were determined using the following formula: IC50=[(50−low %)/(high %−low %)]×(high conc.−low conc.)+low conc.
To assess how these structural modifications impact the ability of library members to inhibit Na^+/K^+-ATPases, a fundamental activity of cardiac glycosides (Paula, S., et al., (2005) Biochemistry 44, 498-510), library hits 5β, 15β, 23β, 27β, 33β, 40β, and digitoxin (1) were submitted to a non-radioactive rubidium uptake assay to gauge Na^+/K^+-ATPase inhibition in both […] human embryonic kidney cells and CHO-K1 hamster ovary cells (Gill, S. et al., (2004) ASSAY and Drug Development Technologies 2, 535-542).

In the next assay the test system is SKOV-3. In words: Cell titer-glo cytotoxicity assay, SKOV-3. It is filed as cell-based, human.
From the text: as §1, §2, §3

A further assay has as its system Hep3B. Nature of the assay: High-throughput calcein AM cytotoxicity assay, Hep3B. To be noted: Hep 3B cells, read-out: IC50, Hep 3B. It is filed as cell-based, human. From the text:
(§4) Standard errors are depicted with error bars.

The subject of a further assay is Du145. Nature of the assay: High-throughput calcein AM cytotoxicity assay, Du145. It is filed as cell-based, human. The note with it: read-out: IC50, Du145.
From the text: as §4

Setting [1] is: SKOV-3, Cell titer-glo, read-out: IC50.

`C[C@H]1O[C@@H](O[C@H]2[C@@H](O)C[C@H](O[C@H]3[C@@H](O)C[C@H](O[C@H]4CC[C@@]5(C)[C@H](CC[C@@H]6[C@@H]5CC[C@]5(C)[C@@H](C7=CC(=O)OC7)CC[C@]65O)C4)O[C@@H]3C)O[C@@H]2C)C[C@H](O)[C@@H]1O` [digitoxin]: the IC50 in the assay with NCI/ADR-RES (Homo sapiens) was 69 nM; on Na+/K+-ATPase it was 75.4 ± 0.5 µM; in the assay on SKOV-3 (Homo sapiens, SK-OV-3), over 1000 nM; in the assay with Hep3B (Homo sapiens, Hep3B), 220 nM; in the assay on Du145 (Homo sapiens, DU-145, Du145 cells), 260 nM.
For `CON([C@H]1CC[C@@]2(C)[C@H](CC[C@@H]3[C@@H]2CC[C@]2(C)[C@@H](C4=CC(=O)OC4)CC[C@]32O)C1)[C@H]1OC[C@H](O)[C@@H](O)[C@@H]1O` [23β, L-xyloside], the IC50 was 72 nM in the assay on NCI/ADR-RES (Cell titer-glo, read-out: IC50); over 300 µM on Na+/K+-ATPase; over 1000 nM in the assay with SKOV-3 (setting [1]); 500 nM in the assay on Hep3B; 620 nM with Du145 (Du145 cells).
As for `CON([C@H]1CC[C@@]2(C)[C@H](CC[C@@H]3[C@@H]2CC[C@]2(C)[C@@H](C4=CC(=O)OC4)CC[C@]32O)C1)[C@@H]1O[C@H](CO)[C@@H](O)[C@H](O)[C@@H]1O` [27β, D-mannoside], the figures for the IC50 on Na+/K+-ATPase, with Hep3B and with Du145 (Du145 cells) were over 200 µM, 400 nM and 1300 nM, respectively.
Take `CON([C@H]1CC[C@@]2(C)[C@H](CC[C@@H]3[C@@H]2CC[C@]2(C)[C@@H](C4=CC(=O)OC4)CC[C@]32O)C1)[C@H]1OC[C@H](O)[C@H](O)[C@@H]1O` [5β, L-riboside]: the IC50 in the assay with NCI/ADR-RES (Cell titer-glo, read-out: IC50) is 45 nM; at Na+/K+-ATPase it was over 300 µM; in the assay with SKOV-3 (setting [1]), over 1000 nM; in the assay on Hep3B, 59 nM; in the assay on Du145 (Du145 cells), 300 nM.
